From US20230031406A1, “COMPOUNDS AND COMPOSITIONS FOR TREATING CONDITIONS ASSOCIATED WITH NLRP ACTIVITY” (Novartis AG, priority 2018, published 2023)
Like-named read-outs stand apart in the source and are kept apart here. One block for each compound: values may come before it.

Test system: PMA-differentiated THP-1 cells
Experiment: IL-1β production in PMA-differentiated THP-1 cells stimulated with gramicidin (hTHP-1 assay containing 2% fetal bovine serum; Procedures 1 and 2)
Format: cell-based, human
Settings: 2% fetal bovine serum
Procedure, shortened: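 Secreted IL-1β, read by HTRF, after gramicidin challenge (5 μM, 2 h) of THP-1 cells differentiated with PMA (20 ng/ml, 16-18 h) and plated at 50,000 cells/well in 2% FBS medium. Compounds, 0.0017-100 μM final with 0.37% DMSO, were added 1 h before stimulation.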

[1] = Table B2, class symbols, read-out: hTHP-1 IC50
[2] = Table B3, hTHP-1 assay, class symbols, read-out: IC50
[3] = Table B1, class symbols, read-out: Average IC50 of compounds in hTHP-1 assay: hTHP-1 IC50
[4] = Homo sapiens, THP-1, Table B2, class symbols, read-out: hTHP-1 IC50
[5] = Homo sapiens, THP-1, Table B3, hTHP-1 assay, numeric values, read-out: IC50
[6] = Homo sapiens, THP-1, Table B3, hTHP-1 assay, class symbols, read-out: IC50
[7] = Homo sapiens, THP-1, Table B1, class symbols, read-out: Average IC50 of compounds in hTHP-1 assay: hTHP-1 IC50

IC50 [1]: 5 to 30 µM
Compound: CCn1ccc(S(N)(=O)=NC(=O)Nc2c3c(nc4c2CC[C@H]4C)CCC3)n1 (single isomer, unassigned) [Compound 634a, (S) or (R)-1-Ethyl-N′-(((R)-3-methyl-1,2,3,5,6,7-hexahydrodicyclopenta [b,e]pyridin-8-yl)carbamoyl)-1H-pyrazole-3-sulfonimidamide]

IC50 (Table B4, class symbols, read-out: hTHP-1 IC50): 5 to 30 µM
Compound: CCn1cc(F)c(S(N)(=O)=NC(=O)Nc2c3c(nc4c2CCC4)CCC3)n1 (single isomer, unassigned) [Example 762, (S) or (R)-1-ethyl-4-fluoro-N′-((1,2,3,5,6,7-hexahydrodicyclopenta[b,e]pyridin-8-yl)carbamoyl)-1H-pyrazole-3-sulfonimidamide]

IC50 [2]: 1 to 5 µM
Compound: Cc1nc2c(c(NC(=O)N=S(N)(=O)c3nn(C(F)F)cc3F)c1-c1ccccc1)CCC2 (single isomer, unassigned) [Example 728, (S) or (R)-1-(difluoromethyl)-4-fluoro-N′-((2-methyl-3-phenyl-6,7-dihydro-5H-cyclopenta[b]pyridin-4-yl)carbamoyl)-1H-pyrazole-3-sulfonimidamide]

IC50 [3]: 1 to 5 µM
Compound: CC(C)(O)c1csc(S(N)(=O)=NC(=O)Nc2c3c(nc4c2CCC4)CCC3)c1 (single isomer, unassigned) [Compound 155b, (S) or (R)-N′-((1,2,3,5,6,7-hexahydrodicyclo-penta[b,e]pyridin-8-yl)carbamoyl)-4-(2-hydroxypropan-2-yl)thiophene-2-sulfonimidamide]

IC50 [2]: 5 to 30 µM
Compound: CCn1cc(F)c(S(N)(=O)=NC(=O)Nc2c3c(nc4c2CC[C@@H]4C)CCC3)n1 (single isomer, unassigned) [Example 712, (S) or (R)-1-ethyl-4-fluoro-N′-(((S)-3-methyl-1,2,3,5,6,7-hexahydrodicyclopenta[b,e]pyridin-8-yl)carbamoyl)-1H-pyrazole-3-sulfonimidamide]

IC50 [1]: 1 to 5 µM
Compound: Cc1c(C2CC2)nc2c(c1NC(=O)N=S(N)(=O)c1cc(C(C)(C)O)n(-c3ccccc3)n1)CCC2 (single isomer, unassigned) [Compound 651b, (R) or (S)-N′-((2-cyclopropyl-3-methyl-6,7-dihydro-5H-cyclopenta[b]pyridin-4-yl)carbamoyl)-5-(2-hydroxypropan-2-yl)-1-phenyl-1H-pyrazole-3-sulfonimidamide]

IC50 [4]: 5 to 30 µM
Compound: CC(C)(O)c1ccc(S(N)(=O)=NC(=O)Nc2c3c(nc4c2CCC4)CCC3)cc1 (single isomer, unassigned) [Compound 633b, (R) or (S)-N′-((1,2,3,5,6,7-hexahydrodicyclopenta [b,e]pyridin-8-yl)carbamoyl)-4-(2-hydroxypropan-2-yl)benzene-sulfonimidamide]

IC50 [4]: 5 to 30 µM
Compound: COCc1nc(C(C)(C)O)sc1S(N)(=O)=NC(=O)Nc1c2c(nc3c1CCC3)CCC2 (single isomer, unassigned) [Compound 689b, (R) or (S)-N′-((1,2,3,5,6,7-hexahydrodicyclopenta [b,e]pyridin-8-yl)carbamoyl)-2-(2-hydroxypropan-2-yl)-4-(methoxymethyl) thiazole-5-sulfonimidamide]

IC50 (Homo sapiens, THP-1, Table B2, numeric bounds, read-out: hTHP-1 IC50): > 30 µM
Compound: CC(C)n1cc(CO)c(S(N)(=O)=NC(=O)Nc2c3c(nc4c2CCC4(C)C)CCC3)n1 (single isomer, unassigned) [Compound 682a, (S) or (R)-N′-((3,3-dimethyl-1,2,3,5,6,7-hexahydrodicyclopenta [b,e]pyridin-8-yl)carbamoyl)-4-(hydroxymethyl)-1-isopropyl-1H-pyrazole-3-sulfonimidamide]

IC50 (Homo sapiens, THP-1, Table B1, numeric bounds, read-out: Average IC50 of compounds in hTHP-1 assay: hTHP-1 IC50): > 30 µM
Compound: CC1CCc2c1nc1c(c2NC(=O)N=S(N)(=O)c2sc(C(C)(C)O)nc2CO)CCC1 (single isomer, unassigned) [Compound 168ab, (S,R) or (S,S)-4-(hydroxymethyl)-2-(2-hydroxypropan-2-yl)-N′-((3-methyl-1,2,3,5,6,7-hexahydrodicyclo-penta[b,e]pyridin-8-yl)carbamoyl)thiazole-5-sulfonimidamide]

IC50 [5]: > 30 µM
Compound: Cc1c(CC(F)(F)F)nc2c(c1NC(=O)N=S(N)(=O)c1nn(C(F)F)cc1F)CCC2 (single isomer, unassigned) [Example 724, (S) or (R)-1-(difluoromethyl)-4-fluoro-N′-((3-methyl-2-(2,2,2-trifluoroethyl)-6,7-dihydro-5H-cyclopenta[b]pyridin-4-yl)carbamoyl)-1H-pyrazole-3-sulfonimidamide]

IC50 [4]: 1 to 5 µM
Compound: CC(C)n1nc(S(N)(=O)=NC(=O)Nc2c3c(nc4c2CCC4(C)C)CCC3)cc1CO (centres unmarked) [Compound 652, N′-((3,3-dimethyl-1,2,3,5,6,7-hexahydrodicyclopenta[b,e]pyridin-8-yl)carbamoyl)-5-(hydroxymethyl)-1-isopropyl-1H-pyrazole-3-sulfonimidamide]

IC50 [6]: 1 to 5 µM
Compound: CCn1cc(F)c(S(N)(=O)=NC(=O)Nc2c(C)c(CC(F)(F)F)nc3c2CCC3)n1 (centres unmarked) [Example 619, 1-Ethyl-4-fluoro-N′-((3-methyl-2-(2,2,2-trifluoroethyl)-6,7-dihydro-5H-cyclopenta[b]pyridin-4-yl)carbamoyl)-1H-pyrazole-3-sulfonimidamide]

IC50 [4]: 1 to 5 µM
Compound: Cc1c(C(F)(F)F)nc2c(c1NC(=O)N=[S@@](N)(=O)c1ccn(C)n1)CCC2 [Compound 730b]

IC50 [7]: 0.2 to 1 µM
Compound: CC(C)c1csc(S(N)(=O)=NC(=O)Nc2c3c(nc4c2CCC4)CCC3)c1 (single isomer, unassigned) [Compound 173a, (R) or (S)-N′-((1,2,3,5,6,7-hexahydrodicyclo-penta[b,e]pyridin-8-yl)carbamoyl)-4-isopropylthiophene-2-sulfonimidamide]

IC50 [3]: 1 to 5 µM
Compound: CC1CCc2c1nc1c(c2NC(=O)N=S(N)(=O)c2sc(C(C)(C)O)nc2CO)CCC1 (single isomer, unassigned) [Compound 168bb, (R,R) or (R,S)-4-(hydroxymethyl)-2-(2-hydroxypropan-2-yl)-N′-((3-methyl-1,2,3,5,6,7-hexahydrodicyclo-penta[b,c]pyridin-8-yl)carbamoyl)thiazole-5-sulfonimidamide]

IC50 [7]: 1 to 5 µM
Compound: CC(C)c1cnc(F)c(C(C)C)c1NC(=O)N=S(N)(=O)c1cnc(C(C)(C)O)s1 (centres unmarked) [Compound 115, N′-((2-fluoro-3,5-diisopropylpyridin-4-yl)carbamoyl)-2-(2-hydroxypropan-2-yl)thiazole-5-sulfonimidamide]

IC50 [3]: 0.04 to 0.2 µM
Compound: CC(C)(O)c1nc(CO)c(S(N)(=O)=NC(=O)Nc2c3c(nc4c2CCC4(C)C)CCC3)s1 (single isomer, unassigned) [Compound 121a, (R) or (S)-N′-((3,3-dimethyl-1,2,3,5,6,7-hexahydro-dicyclopenta[b,e]pyridin-8-yl)carbamoyl)-4-(hydroxymethyl)-2-(2-hydroxypropan-2-yl)thiazole-5-sulfonimidamide]

IC50 [1]: 5 to 30 µM
Compound: Cc1c(C2CC2)nc2c(c1NC(=O)N=S(N)(=O)c1cnn3c1OCCC3)CCC2 (single isomer, unassigned) [Compound 306a, (S) or (R)-N′-((2-cyclopropyl-3-methyl-6,7-dihydro-5H-cyclopenta[b]pyridin-4-yl)carbamoyl)-6,7-dihydro-5H-pyrazolo[5,1-b] [1,3]oxazine-3-sulfonimidamide]

IC50 [4]: 1 to 5 µM
Compound: CC(C)(O)c1csc(S(N)(=O)=NC(=O)Nc2cc(CC(F)(F)F)nc3c2CCC3)c1 (centres unmarked) [Compound 607, 4-(2-Hydroxypropan-2-yl)-N′-((2-(2,2,2-trifluoroethyl)-6,7-dihydro-5H-cyclopenta[b]pyridin-4-yl)carbamoyl)thiophene-2-sulfonimidamide]

IC50 [1]: 5 to 30 µM
Compound: CCc1cc(F)c(S(N)(=O)=NC(=O)Nc2c3c(nc4c2CC[C@H]4C)CCC3)s1 (single isomer, unassigned) [Compound 720b, (S) or (R)-5-Ethyl-3-fluoro-N′-(((R)-3-methyl-1,2,3,5,6,7-hexahydrodicyclopenta[b, e]pyridin-8-yl)carbamoyl)thiophene-2-sulfonimidamide]

IC50 [5]: > 30 µM
Compound: CC(C)(O)c1ncc(S(N)(=O)=NC(=O)Nc2cc(C(F)F)nc3c2CCC3)s1 (centres unmarked) [Example 614, N′-((2-(difluoromethyl)-6,7-dihydro-5H-cyclopenta[b]pyridin-4-yl)carbamoyl)-2-(2-hydroxypropan-2-yl)thiazole-5-sulfonimidamide]

IC50 [6]: 1 to 5 µM
Compound: CCn1nc(S(N)(=O)=NC(=O)Nc2c(C)c(C(F)(F)F)nc3c2CCC3)cc1CO (centres unmarked) [Example 588, 1-Ethyl-5-(hydroxymethyl)-N′-((3-methyl-2-(trifluoromethyl)-6,7-dihydro-5H-cyclopenta[b]pyridin-4-yl)calbamoyl)-1H-pyrazole-3-sulfonimidamide]

IC50 [3]: 5 to 30 µM
Compound: CC(C)(O)c1ncc(S(N)(=O)=NC(=O)Nc2c3c(nc4c2CCC4(C)C)CCC3)s1 (single isomer, unassigned) [Compound 153a, (S) or (R)-N′-((3,3-dimethyl-1,2,3,5,6,7-hexahydro-dicyclopenta[b,e]pyridin-8-yl)carbamoyl)-2-(2-hydroxypropan-2-yl)thiazole-5-sulfonimidamide]

IC50 [3]: 1 to 5 µM
Compound: CC(C)(O)c1ncc(S(N)(=O)=NC(=O)Nc2c3c(nc4c2CCC4)CCCC3)s1 (single isomer, unassigned) [Compound 161b, (R) or (S)-N′-((2,3,5,6,7,8-hexahydro-1H-cyclopenta[b]quinolin-9-yl)carbamoyl)-2-(2-hydroxypropan-2-yl)thiazole-5-sulfonimidamide]

IC50 [4]: 0.2 to 1 µM
Compound: CC(C)c1nc2c(cc1NC(=O)N=[S@](N)(=O)c1cnc(C(C)(C)O)s1)CCC2 [Compound 601a]
